# Laboratory results as given in patent US10918638B2, “Histone deacetylase 6 inhibition for enhancing T-cell function during anti-tumor response and tumor-peptide vaccination” (H. LEE MOFFITT CANCER CENTER AND RESEARCH INSTITUTE, INC., priority 2014, dated 2021).
# What was measured:
# Fc-muMCL1 lymphoma cells [1] = experiment: Fc-muMCL1 lymphoma tumor growth in C57BL/6 mice; assay type: in vivo; details: C57BL/6 (WT) mice, 35 mg/kg daily for 16 days vs vehicle
# Method: (§1) FIGS. 3A and 3B. […] (FIG. 3A) C57BL/6 or (FIG. 3B) SCID mice were subcutaneous injected with 3×10^6 Fc-muMCL1 lymphoma cells. After tumor appearance, six mice were treated daily with 35 mg/kg of Tubastatin A and four mice received vehicle control, for 16 days. […] To further evaluate whether these in vivo responses were dependent on T-cells, WT or lympho-deficient, lymphoma-bearing mice were treated with an HDAC6 inhibitor. HDAC6 inhibition led to reduced tumor burden in WT mice, which was absent in lympho-deficient mice, highlighting the importance of lymphocytes in the aforementioned in vivo results. Thus, the role of HDAC6 in regulating immune cells during anti-tumor response appears to be more important than the previously reported role as a regulator of Treg function.
# Fc-muMCL1 lymphoma cells [2] = experiment: Fc-muMCL1 lymphoma tumor growth in SCID mice; assay type: in vivo; details: SCID (lympho-deficient) mice, 35 mg/kg daily for 16 days vs vehicle
# Method: as §1
smiles,measurement,setting,value
CN1CCc2c(c3ccccc3n2Cc2ccc(C(=O)NO)cc2)C1 [Tubastatin A],anti-tumor response / tumor burden,Fc-muMCL1 lymphoma cells [1],Enhanced anti-tumor response
same,anti-tumor response / tumor burden,Fc-muMCL1 lymphoma cells [2],dependent on an intact immune system
